# Measured values from ChEMBL document CHEMBL1201862, “PubChem BioAssay data set” (2004).
# Active and inactive are the calls of the source.
# Legend:
# [1] = molecular target: T1, Bcl-2-like protein 10 (Homo sapiens, UniProt Q9HD36); experiment: displacers of TR3 peptide from Bcl-B, primary screen, selectivity assay for Bfl-1 inhibitor project, biochemical, fluorescence polarization, FITC-TR3 peptide (AID 748);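 also: fluorescence polarization from a fluorescein-labelled TR3 peptide binding purified Bcl-B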
# T1 sequence (Q9HD36 whole entry): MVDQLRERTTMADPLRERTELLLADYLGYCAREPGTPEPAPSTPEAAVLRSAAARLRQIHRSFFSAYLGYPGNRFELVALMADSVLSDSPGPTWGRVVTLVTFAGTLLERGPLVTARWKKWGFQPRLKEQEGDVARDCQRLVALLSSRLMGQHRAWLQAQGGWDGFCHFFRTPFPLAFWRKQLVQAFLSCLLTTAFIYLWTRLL
# [2] = molecular target: T2, Estrogen receptor (Homo sapiens, UniProt P03372);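 also: potency for inhibiting coactivator peptide recruitment to the receptor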
# T2 sequence (P03372 whole entry): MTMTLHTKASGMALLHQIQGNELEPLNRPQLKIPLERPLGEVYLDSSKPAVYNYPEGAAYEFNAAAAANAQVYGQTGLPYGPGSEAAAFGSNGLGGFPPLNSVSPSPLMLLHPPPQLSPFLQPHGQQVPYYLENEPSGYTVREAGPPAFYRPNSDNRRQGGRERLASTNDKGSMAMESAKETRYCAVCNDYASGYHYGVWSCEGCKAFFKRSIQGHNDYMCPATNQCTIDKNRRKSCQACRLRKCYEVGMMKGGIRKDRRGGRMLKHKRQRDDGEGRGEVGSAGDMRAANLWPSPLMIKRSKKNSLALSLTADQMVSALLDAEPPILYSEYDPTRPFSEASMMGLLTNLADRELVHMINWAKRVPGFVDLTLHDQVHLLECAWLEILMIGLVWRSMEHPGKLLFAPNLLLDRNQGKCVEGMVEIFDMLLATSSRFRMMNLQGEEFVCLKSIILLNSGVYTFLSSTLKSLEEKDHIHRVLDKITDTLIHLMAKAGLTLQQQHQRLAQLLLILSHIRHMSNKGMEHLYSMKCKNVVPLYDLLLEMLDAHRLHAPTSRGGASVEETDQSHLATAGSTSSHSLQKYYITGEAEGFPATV
# [3] = molecular target: Paired box protein Pax-8 (Homo sapiens, UniProt Q06710); experiment: inhibitors of PAX8-driven TPO luciferase reporter, dose response, RMG-I cells, cherry-pick (AID 687027); type: functional, cell-based;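 also: luciferase reporter driven by Pax8 target thyroperoxidase promoter measured by SteadyGlo luminescence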
# Sequence of Paired box protein Pax-8 (Q06710 whole entry): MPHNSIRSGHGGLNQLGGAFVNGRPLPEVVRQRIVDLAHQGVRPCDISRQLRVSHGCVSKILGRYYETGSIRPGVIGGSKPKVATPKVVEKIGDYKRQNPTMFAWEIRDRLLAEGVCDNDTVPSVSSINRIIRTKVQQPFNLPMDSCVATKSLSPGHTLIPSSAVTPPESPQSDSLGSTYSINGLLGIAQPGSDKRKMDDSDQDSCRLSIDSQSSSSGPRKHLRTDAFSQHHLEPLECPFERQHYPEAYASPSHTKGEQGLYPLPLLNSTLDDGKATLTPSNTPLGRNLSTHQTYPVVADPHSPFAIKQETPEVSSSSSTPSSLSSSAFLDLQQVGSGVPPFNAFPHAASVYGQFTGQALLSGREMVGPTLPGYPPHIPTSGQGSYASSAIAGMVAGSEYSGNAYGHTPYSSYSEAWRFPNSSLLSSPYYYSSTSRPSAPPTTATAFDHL
# [4] = cytotoxicity in OVCAR8 ovarian cancer cells, dose response, PAX8 project, cell-based, plate reader, dry powder samples (AID 743197); type: functional; details: OVCAR-8
# [5] = NIH:OVCAR-3 ovarian cancer cell cytotoxicity, dose response, PAX8 inhibitor project, plate reader, dry powder samples (AID 743044); type: functional, cell-based
# [6] = P. falciparum Dd2 growth inhibitors, dose response, SYBR Green, cherry-picked samples (AID 1159567); type: functional, cell-based
# [7] = HepG2 cell cytotoxicity, dose response, cytotoxicity control, plate reader, dry powder samples (AID 1159569); type: functional, cell-based;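 also: inhibitor potency with signal falling toward the positive control level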
# [8] = P. falciparum ATP4 D1247Y mutant growth inhibitors, dose response, NITD609-resistant line, SYBR Green, dry powder (AID 1159571); type: functional, cell-based;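 also: parasites synchronized at ring stage by sorbitol before testing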
# [9] = P. falciparum Dd2 growth inhibitors, dose response, SYBR Green, dry powder samples (AID 1159566); type: functional, cell-based;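 also: potency for growth inhibition with lower SYBR green DNA signal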
# [10] = P. falciparum 3D7-ScDHODH growth inhibitors, dose response, SYBR Green, dry powder samples (AID 1159570); type: functional, cell-based;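 also: parasite growth measured after 72 hours of compound exposure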
# [11] = molecular target: Prothrombin (Homo sapiens, UniProt P00734); experiment: Thrombin 1536 HTS Dose Response Confirmation. [Related pubchem assays: 1046 (Thrombin 1536 HTS; hits were confirmed in this assay)]; type: functional
# [12] = molecular target: Induced myeloid leukemia cell differentiation protein Mcl-1 (Homo sapiens, UniProt Q07820); type: functional
# Sequence of Induced myeloid leukemia cell differentiation protein Mcl-1 (Q07820 whole entry): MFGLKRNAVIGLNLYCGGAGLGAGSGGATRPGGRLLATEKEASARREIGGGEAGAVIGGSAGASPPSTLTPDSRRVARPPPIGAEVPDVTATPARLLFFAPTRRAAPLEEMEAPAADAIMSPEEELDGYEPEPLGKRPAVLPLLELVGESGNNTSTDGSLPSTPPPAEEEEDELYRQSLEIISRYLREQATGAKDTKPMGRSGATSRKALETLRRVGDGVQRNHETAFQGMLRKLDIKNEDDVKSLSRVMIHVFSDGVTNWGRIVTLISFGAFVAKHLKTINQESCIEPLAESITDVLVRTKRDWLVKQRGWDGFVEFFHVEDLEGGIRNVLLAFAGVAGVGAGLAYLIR
# [13] = THP-1 cell cytotoxicity, dose response, cytotoxicity control for Vif-APOBEC3G degradation inhibitor project, THP-1 cells (AID 1117359); type: functional; details: Human immunodeficiency virus 1, THP-1
# [14] = cells
# [15] = molecular target: Disintegrin and metalloproteinase domain-containing protein 17 (Homo sapiens, UniProt P78536); experiment: exosite inhibitors of ADAM17, dose response, biochemical (AID 743260)
# Sequence of Disintegrin and metalloproteinase domain-containing protein 17 (P78536 whole entry, the tested form may be a part): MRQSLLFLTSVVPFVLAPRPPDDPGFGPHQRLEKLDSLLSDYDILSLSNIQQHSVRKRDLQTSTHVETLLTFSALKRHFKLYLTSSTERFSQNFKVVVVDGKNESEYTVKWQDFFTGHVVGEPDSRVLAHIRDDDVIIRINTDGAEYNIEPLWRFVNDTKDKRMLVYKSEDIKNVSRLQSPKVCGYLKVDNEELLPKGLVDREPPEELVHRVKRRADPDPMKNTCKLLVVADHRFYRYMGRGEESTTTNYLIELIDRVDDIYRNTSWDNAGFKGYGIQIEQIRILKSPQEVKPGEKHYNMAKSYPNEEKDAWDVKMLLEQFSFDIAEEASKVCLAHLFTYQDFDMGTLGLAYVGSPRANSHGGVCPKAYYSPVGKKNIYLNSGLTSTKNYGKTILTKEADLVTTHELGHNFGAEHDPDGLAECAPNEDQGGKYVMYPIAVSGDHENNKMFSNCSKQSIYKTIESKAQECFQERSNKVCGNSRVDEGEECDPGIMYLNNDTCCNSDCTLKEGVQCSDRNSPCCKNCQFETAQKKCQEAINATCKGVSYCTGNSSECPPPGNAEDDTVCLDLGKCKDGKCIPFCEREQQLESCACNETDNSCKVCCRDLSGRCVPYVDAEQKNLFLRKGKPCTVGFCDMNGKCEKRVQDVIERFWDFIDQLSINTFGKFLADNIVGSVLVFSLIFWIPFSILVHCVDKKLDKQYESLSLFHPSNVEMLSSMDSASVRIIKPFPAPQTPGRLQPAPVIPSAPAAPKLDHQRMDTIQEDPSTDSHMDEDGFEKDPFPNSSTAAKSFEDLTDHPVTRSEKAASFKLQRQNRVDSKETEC
# [16] = ADAM10 protease inhibitors, dose response, selectivity assay for ADAM17 exosite inhibitor project, biochemical, FRET peptide substrate, recombinant human ADAM10 (AID 743259);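 also: ADAM10 enzyme cleaving a FRET peptide substrate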
# [17] = molecular target: Eukaryotic translation initiation factor 4E (Mus musculus, UniProt P63073); experiment: eIF4E–eIF4G protein interaction inhibitors, dose response, biochemical, TR-FRET (AID 855); type: functional;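 also: potency for disrupting eIF4E binding to eIF4GI seen as loss of FRET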
# Sequence of Eukaryotic translation initiation factor 4E (P63073 whole entry): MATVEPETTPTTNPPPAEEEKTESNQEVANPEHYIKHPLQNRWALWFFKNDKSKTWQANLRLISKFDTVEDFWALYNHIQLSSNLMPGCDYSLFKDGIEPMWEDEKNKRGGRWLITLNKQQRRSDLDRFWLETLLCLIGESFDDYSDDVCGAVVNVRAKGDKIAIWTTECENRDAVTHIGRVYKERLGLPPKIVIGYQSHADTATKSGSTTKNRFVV
# [18] = HepG2 cell cytotoxicity, dose response, cytotoxicity control for non-replicating M. tuberculosis project (AID 489018); type: functional; details: Mycobacterium tuberculosis
# [19] = Luminescence Cell-Based Dose Response HTS to Identify Activators of Luciferase Translation or Activity in H4 […] Cells. [Related pubchem assays: 1829 (Project Summary), 1814 (Primary HTS)]; type: functional
# [20] = inhibitors of intracellular T. cruzi replication, confirmation, NIH3T3 host cells, beta-gal luminescence (AID 2044); type: functional, cell-based;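 also: intracellular parasites grown in NIH/3T3 mouse fibroblasts as host cells; luminescent beta-galactosidase reporter signal from transgenic T. cruzi replicating inside host cells; inhibitors lower the luminescence signal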
# [21] = THP-1 cell cytotoxicity, dose response, cytotoxicity control for non-replicating M. tuberculosis project (AID 489025); type: functional
# [22] = cells; type: functional
# [23] = Vero E6 cell cytotoxicity, dose response, cytotoxicity control for non-replicating M. tuberculosis project, secondary assay (AID 492998); type: functional, VeroE6; details: Vero C1008
# [24] = growth suppression of beta-catenin-knockout colon cells, dose response, cell-based, HCT116, human colon tumor (AID 1045); type: functional;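 also: HCT116 colon tumor cells with beta catenin knocked out; cells exposed to compound for 60 hours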
# [25] = test system: H4; experiment: Luminescence Cell-Based Dose Response HTS to Identify Activators of 5'UTR Stem-Loop Driven Prion Protein mRNA Translation in H4 Neuroglioblastoma Cells. [Related pubchem assays: 1829 (Project Summary), 1814 (Primary HTS)]; type: functional; details: Homo sapiens
# [26] = test system: INS1; experiment: beta cell apoptosis inhibitors, cytokine rescue, dose response, luminescence, retest (AID 449756); type: functional, cell-based; details: Rattus norvegicus;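 also: cell death triggered by IL-1 beta plus TNF-alpha plus IFN-gamma mixture; protective hits raise ATP signal compared with cytokine alone wells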
# [27] = control 3'UTR Renilla luciferase suppression, dose response, counter-screen for Shn3 inhibitor project, cell-based, Clone20-Shn3RL, cherry-picked (AID 624133); type: functional
# [28] = cytotoxicity toward NIH3T3 fibroblasts, dose response, counter-screen, cell-based, ATP luminescence, mouse fibroblasts (AID 2010); type: functional;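 also: cells exposed to compound for about 90 hours before reading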
# [29] = HepG2 cell cytotoxicity, dose response, cytotoxicity control for Shn3 inhibitor project, CellTiter-Glo, cherry-picked (AID 624134); type: functional, cell-based
# [30] = Luminescence Cell-Based Dose Confirmation HTS to Identify Activators of 5'UTR Stem-Loop Driven Alpha-Synuclein mRNA Translation in H4 Neuroglioblastoma Cells. [Related pubchem assays: 1829 (Project Summary), 1814 (Primary HTS)]; type: functional
# [31] = Shn3 3'UTR reporter inhibitors, dose response, cell-based, Clone20 osteoblasts, firefly luciferase, cherry-picked (AID 624132); type: functional;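 also: firefly luciferase luminescence from reporter carrying the Shn3 3'UTR in osteoblasts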
# [32] = growth suppression of PTEN-null colon cells, dose response, cell-based, HCT116 PTEN knockout (AID 1047); type: functional;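 also: HCT116 colon tumor cells with PTEN knocked out; cells exposed to compound for 60 hours before readout; potency for loss of cell viability measured by luminescence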
# [33] = HEp-2 cell cytotoxicity, dose response, cytotoxicity control for RSV inhibitor project, HTS (AID 2410); type: functional; details: human respiratory syncytial virus
# [34] = molecular target: T3, Heat shock factor protein 1 (Mus musculus, UniProt P38532); experiment: inhibition of MG132-induced HSE-luciferase signal, confirmation, cell-based, NIH3T3, luminescence, dose retest (AID 2382); type: functional;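 also: NIH3T3 fibroblasts with HSF1-driven luciferase reporter stressed by proteasome inhibitor MG132; luminescence from HSF1-driven luciferase expression after 8 hours of MG132 stress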
# T3 sequence (P38532 whole entry): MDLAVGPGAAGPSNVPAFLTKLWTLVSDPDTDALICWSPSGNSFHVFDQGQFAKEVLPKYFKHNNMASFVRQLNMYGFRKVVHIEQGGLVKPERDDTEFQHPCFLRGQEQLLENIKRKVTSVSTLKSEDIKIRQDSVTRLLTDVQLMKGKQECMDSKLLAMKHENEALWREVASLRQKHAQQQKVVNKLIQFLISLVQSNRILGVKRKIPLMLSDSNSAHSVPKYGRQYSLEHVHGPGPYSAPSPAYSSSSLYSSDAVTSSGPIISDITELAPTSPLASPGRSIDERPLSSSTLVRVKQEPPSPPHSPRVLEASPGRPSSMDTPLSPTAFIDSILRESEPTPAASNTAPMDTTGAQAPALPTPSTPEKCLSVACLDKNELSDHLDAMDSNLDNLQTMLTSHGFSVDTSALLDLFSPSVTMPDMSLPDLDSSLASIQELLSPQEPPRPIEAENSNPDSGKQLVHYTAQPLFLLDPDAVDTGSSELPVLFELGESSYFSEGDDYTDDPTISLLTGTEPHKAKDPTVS
# [35] = Luminescence Cell-Based Dose Retest to Confirm Inhibitors of Cancer Stem Cells. [Related pubchem assays (depositor defined):AID2717, AID2721]; type: functional; details: Homo sapiens
# [36] = molecular target: T4, Ubiquitin-conjugating enzyme E2 N (Homo sapiens, UniProt P61088); type: functional;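 also: Dose-response confirmation in a TR-FRET assay detecting UBC13-driven polyubiquitin chain formation, inhibition measured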
# T4 sequence (P61088 whole entry): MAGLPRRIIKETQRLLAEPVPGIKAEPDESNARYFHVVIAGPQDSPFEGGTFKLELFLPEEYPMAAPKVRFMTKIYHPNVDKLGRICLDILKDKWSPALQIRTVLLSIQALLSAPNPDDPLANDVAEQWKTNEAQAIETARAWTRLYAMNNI
structure (smiles),measurement,setting,value
COc1ccccc1N1CCN(C(=O)c2cc3c(s2)CCC3)CC1,IC50,[1],36.6 µM (active)
same,IC50,[2],5.19 µM (active)
C[C@@H]1CN([C@H](C)CO)S(=O)(=O)c2ccc(C#CC3CCCC3)cc2O[C@H]1CN(C)Cc1cccnc1,AC50,[3],12.5 µM (active)
same,AC50,[4],50.2 µM (active)
same,AC50,[5],26.2 µM (active)
COc1cccc(C#Cc2ccc([C@H]3[C@@H](CO)N4C(=O)CN(C(=O)c5ccccc5)C[C@H]34)cc2)c1,AC50,[6],0.791 µM (active)
same,AC50,[7],22.3 µM (active)
same,AC50,[8],0.53 µM (active)
same,AC50,[9],0.398 µM (active)
same,AC50,[10],1.03 µM (active)
CC(C)Oc1ccc(N2CC(C(=O)NC3=NCCS3)CC2=O)cc1 (stereo not drawn),IC50,[11],> 50 µM (not active)
CC(C)c1ccc(S(=O)(=O)/N=C2/C=CC(=O)c3ccccc32)cc1,IC50,[12],3.28 µM (active)
same,CC50,[13],18.2 µM (active)
Cc1ccc(S(=O)(=O)N2CCN(CCO)CC2)cc1-c1nnc2c3ccccc3c(C)nn12,IC50,[14],> 50 µM (active)
COCc1cn([C@@H]2C[C@@H]3O[C@H](CO)CC[C@@H]3O[C@@H]2CCc2ccc(-c3ccc(OC)cc3)cc2)nn1,AC50,[6],0.782 µM (active)
same,AC50,[7],37.4 µM (active)
same,AC50,[8],0.571 µM (active)
same,AC50,[9],0.426 µM (active)
same,AC50,[10],0.424 µM (active)
CCOC(=O)/C=C1\CN(Cc2ccc(OC)cc2)S(=O)(=O)c2ccccc21,IC50,[15],> 69.5 µM (inactive)
same,IC50,[16],> 69.5 µM (inactive)
Cc1nn(C)cc1CNC(=O)C1C2CCC(C2)C1C(=O)O (stereo not drawn),CC50,[13],> 40 µM (active)
COc1ccc(NC(C)C(=O)Nc2ccc(C#N)cc2)cc1Cl (stereo not drawn),IC50,[12],35.9 µM (not active)
same,IC50,[17],> 64 µM (inactive)
COC(=O)CNc1c(-c2ccccn2)nc2ccc(Br)cn12,IC50,[1],> 12.5 µM (inactive)
CN(C)CC(C(=O)c1ccccc1)c1ccccc1 (stereo not drawn),CC50,[18],12.9 µM (active)
same,EC50,[19],> 120 µM (not active)
same,EC50,[20],3.6 µM (active)
same,CC50,[21],7.72 µM (active)
same,IC50,[22],4.64 µM (active)
same,CC50,[23],10.6 µM (active)
same,EC50,[24],2.99 µM (active)
same,EC50,[25],> 120 µM (not active)
same,AC50,[26],7.43 µM (active)
same,AC50,[27],8.54 µM (active)
same,EC50,[28],> 30 µM (not active)
same,AC50,[29],19.2 µM (active)
same,EC50,[30],> 120 µM (not active)
same,AC50,[31],2.8 µM (active)
same,EC50,[32],5.35 µM (active)
COc1ccccc1-n1c(C)cc(/C=C2\C(=N)N3N=C(CC(=O)N4CCOCC4)SC3=NC2=O)c1C,IC50,[14],24.1 µM (active)
same,CC50,[33],38.3 µM (active)
Cc1nn(C)cc1CN1CCC(CO)(CCOc2ccccc2)CC1,IC50,[11],> 50 µM (not active)
O=C(CN1CCN(c2nc(-c3ccccc3)cs2)CC1)Nc1ccc(Cl)c(Cl)c1,IC50,[15],> 69.6 µM (inactive)
same,IC50,[16],37.8 µM (inactive)
O=C(Nc1nc(-c2ccco2)c(-c2ccco2)s1)c1ccc(F)cc1F,CC50,[13],> 40 µM (active)
Cc1csc(-c2cnn(-c3ccccc3)c2NC(=O)c2ccc(C(F)(F)F)cc2)n1,IC50,[15],> 69.5 µM (inactive)
same,IC50,[16],24.7 µM (inactive)
Cc1ccccc1N=Nc1c(C)[nH]n(-c2ccccc2)c1=O,IC50,[17],50 µM (inactive)
COC(=O)c1ccc(Cn2c(CN3CCOCC3)nc3ccccc3c2=O)o1,IC50,[14],17.4 µM (active)
Cc1cc(C)c2c(-n3cccc3)c(C(=O)NNS(=O)(=O)c3ccc(Cl)cc3)sc2n1,IC50,[14],40.2 µM (active)
same,CC50,[33],37.1 µM (active)
O=C(COC(=O)c1cccc(NS(=O)(=O)/C=C/c2ccccc2)c1)Nc1ccccc1OC(F)F,IC50,[15],> 69.5 µM (inactive)
same,IC50,[16],36 µM (inactive)
O=C(COc1ccccc1C(=O)O)Nc1ccc(SC(F)F)cc1,EC50,[34],> 195 µM (not active)
same,IC50,[11],> 50 µM (not active)
COc1ccc2nc(C)cc(N/N=C/c3ccccc3)c2c1,CC50,[18],9.19 µM (active)
same,AC50,[35],5.6 µM (active)
same,CC50,[21],10.9 µM (active)
same,IC50,[22],0.52 µM (active)
same,CC50,[23],6.15 µM (active)
same,AC50,[26],2.68 µM (active)
same,IC50,[36],> 20 µM (inactive)
